Structures are written as SMILES. Active and inactive are the calls of the source. The rule behind the calls is not given here.

The target in the test is X-box-binding protein 1 (Homo sapiens) (UniProt P17861). Briefly: XBP1 reporter suppression in cells – counter-screen, dose response (AID 504313).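 Note: CHO cells carrying an XBP1 reporter stimulated with tunicamycin; potency is for inhibition of the tunicamycin-induced reporter signal.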 Particulars: XBP1 reporter cell assay, percent of control. For orientation: Counterscreens check selectivity or assay interference.
Regarding `CCC(Cc1ccccc1)n1c(=S)[nH]c2ccccc2c1=O` (stereo not drawn), the IC50 was > 10 µM (inactive).
For the molecule `Cc1ccc(C(C)C)c(OCC(=O)N/N=C/C2CCCCC2)c1`, the IC50 result is “inactive”.
For `Cc1cccc(C(=O)c2cnc3ccccc3c2-c2ccccc2)c1`, the IC50 is > 10 µM (inactive).
In the case of `Nc1cc(Cl)ccc1Oc1ccc(Cl)cc1`, the IC50 result was “inactive”.
Regarding `COc1ccc(N=CC2=C(O)c3ccccc3C2=O)c(OC)c1`, the IC50 entry was “inactive”.
Take `CCOC(=O)C1=C(c2ccc(OC)cc2)C(=O)c2ccccc2C1=O`: the IC50 entry is “inactive”.
As for `Oc1ccc(Oc2ccc3c(C(F)(F)F)cc(C(F)(F)F)nc3n2)cc1`, the figure is > 10 µM (inactive).
The result for `CC1CCN(C(=O)/C(=C/c2ccccc2Cl)c2ccccc2)CC1` reads “inactive”.
For the molecule `COC(=O)c1ccc2c(=O)n(CCCCCC(=O)N3CCN(c4ccccc4)CC3)c(=O)[nH]c2c1`, the IC50 is > 10 µM (inactive).
Regarding `OCCCNc1nccc(-c2cc(Nc3cccc(Cl)c3)ncn2)n1`, the IC50 is 0.3 µM.
As for `O=C1CC(c2ccccc2)CC(O)=C1C=Nc1cccc(Cl)c1` (stereo not drawn), the figure is > 10 µM (inactive); as for `Cc1ccc(NC(=O)c2cc3ccccc3oc2=O)cc1S(=O)(=O)N(C)C`, under 0.16 µM; as for `COc1ccc(C(=O)NC(=O)Nc2cc(C)ccn2)cc1`, “inactive”.
As for `CC(C)Cn1c(=O)[nH]c(=O)c2c(C(F)(F)F)cc(-c3ccccc3)nc21`, the IC50 was > 10 µM (inactive).
As for `O=C(/C=C\c1cn(-c2ccccc2)nc1-c1ccccc1)Nc1nccs1`, the entry is “inactive”; as for `CCOC(=O)N=Nc1c2ccccc2c2nc3no[nH]c3nc12`, “inactive”; as for `CCCCCc1ccc(OCCOCCn2c[n+](C)c3ccccc32)c(CCCCC)c1`, “inactive”.
Regarding `CCc1ccc(OCc2n[nH]c(=S)n2C(C)CCCC(C)C)cc1` (stereo not drawn), the IC50 entry is “inactive”.
For the molecule `CCOc1ccc2nc(NC(=O)CSc3nnnn3C3CCCCC3)sc2c1`, the IC50 is > 10 µM (inactive).
For `CCOc1cccc(C(=O)Nc2cccc(-c3nnc(-c4ccc(C)cc4)o3)c2)c1`, the IC50 is > 10 µM (inactive).
Consider `Cc1cc(C(=O)CCl)c(C)n1-c1cccc(S(=O)(=O)N2CCOCC2)c1`, for which the IC50 was > 10 µM (inactive).
For the molecule `COc1ccc(N/N=C(\C=N\O)C(=O)c2ccc(OC)cc2)cc1`, the IC50 was > 10 µM (inactive).
In the case of `CS(=O)(=O)c1nc(-c2cccs2)cc(C(F)(F)F)n1`, the IC50 entry was “inactive”.
`CS(=O)(=O)c1nc(-c2ccccc2)cc(C(F)(F)F)n1`: the IC50 entry is “inactive”.
As for `CCOC(=O)C1=C(c2ccccc2)O/C(=C(/C#N)C(F)(F)F)S1`, the figure is > 10 µM (inactive).
For `CCOC(=O)c1cnc(-n2nc(C)cc2C)nc1Nc1ccc(O)cc1`, the IC50 is 1.26 µM.
On to `C=CCSc1nc2ccccc2n1C(=O)/C=C/c1cc(OC)c(OC)c(OC)c1`, for which the IC50 is 1.73 µM.
Consider `COC(=O)c1ccccc1NC1=C/C(=N\S(=O)(=O)c2cccs2)c2ccccc2C1=O`, for which the IC50 result was “inactive”.
Consider `O=C(CCl)Nc1cn(-c2ccccc2)nc1-c1ccccc1`, for which the IC50 result was “inactive”.
The result for `Cc1ccc2c(c1)c1c(n2CC(O)Cn2c(C)nc3ccccc32)CCCC1` (stereo not drawn) reads “inactive”; that for `Cc1ccc(Nc2nc(N)c([N+](=O)[O-])c(N3CCC(C)CC3)n2)cc1C`, “inactive”.
As to `CCCCc1c(C)nn(-c2nnc3c4ccccc4n(CC)c3n2)c1C`, the IC50 was > 10 µM (inactive).
As for `CS(=O)(=O)c1ncc(Cl)c(C(=O)Nc2ccc(N3CCOCC3)cc2)n1`, the entry is “inactive”; as for `COC(=O)CS(=O)(=O)c1nnc([C@H](Cc2ccccc2)NC(=O)OC(C)(C)C)o1`, “inactive”; as for `O=C(c1ccc(COc2ccc(Cl)cc2)o1)N1N=C(C(F)F)CC1(O)C(F)F` (stereo not drawn), “inactive”.
In the case of `Cc1ccc(/C=C2\SC(=S)N(CCCC(=O)Nc3ccc(O)cc3)C2=O)cc1`, the IC50 was under 0.16 µM.
On to `CCOC(=O)c1cc(-c2cccs2)nc2c1c(C)nn2-c1ccccn1`, for which the IC50 was > 10 µM (inactive).
Regarding `CCOc1cc(/C=C2/C(=O)ON=C2C)ccc1OCc1ccccc1F`, the IC50 was > 10 µM (inactive).
Take `CCOC(=O)c1cc(-c2ccccc2)nc2c1c(C)nn2-c1ccccn1`: the IC50 is > 10 µM (inactive).
Turning to `COC(=O)C(O)(c1ccc(NC(=S)NC(=O)c2ccc(Cl)cc2Cl)c(C)c1)C(F)(F)F` (stereo not drawn), the IC50 is > 10 µM (inactive).
The result for `O=C1c2ccccc2C(=O)C1c1nccc2ccccc12` reads “inactive”.
`O/N=C(\c1ccc(Cl)cc1Cl)c1ncc(C(F)(F)F)cc1Cl`: the IC50 was 6.07 µM.
On to `O=c1c(Br)c(Br)cnn1-c1ccccc1`, for which the IC50 entry was “inactive”.
With `COc1ccc(NC(=S)NC(NC(=O)/C=C/c2ccccc2)C(Cl)(Cl)Cl)cc1` (stereo not drawn), the IC50 is > 10 µM (inactive).
As for `FC(F)(F)c1cc(-c2cccs2)nc(-n2cc(Br)cn2)n1`, the figure is > 10 µM (inactive); as for `CCc1ccc2[nH]c(=O)c(C(c3nnnn3Cc3ccco3)N3CCC(C)CC3)cc2c1` (stereo not drawn), > 10 µM (inactive).
Regarding `CC(=O)OCC1O[C@@H](O[C@@H]2C[C@H]3C(C)(C)[C@H](OC(C)=O)CC[C@]3(C)[C@H]3CC[C@]45C[C@]4(CC[C@H]5[C@@H](C)C[C@@H](O)[C@H](O)C(C)(C)O)[C@@]32C)[C@H](O)[C@@H](O)[C@@H]1O` (stereo partly drawn), the IC50 entry was “inactive”.
Regarding `CCCN1C=CC(=C2C(=O)c3ccccc3C2=O)C=C1`, the IC50 result was “inactive”.
For the molecule `O=S(=O)(Nc1cc(Sc2ncn[nH]2)c(O)c2ccccc12)c1ccccc1`, the IC50 entry was “inactive”.
On to `Cc1cccc(N=Nc2c(N)n[nH]c2-c2ccc(Cl)cc2)c1`, for which the IC50 is > 10 µM (inactive).
The result for `O=C(CCl)Nc1cccc(-c2cnc3ccccc3n2)c1` reads > 10 µM (inactive).
The result for `Cc1ccc(NC(=O)c2ccc(Nc3c([N+](=O)[O-])cc([N+](=O)[O-])cc3[N+](=O)[O-])cc2)cc1` reads “inactive”; that for `CN1C(=O)/C(=C/c2cc(N=Nc3ccccc3)ccc2O)SC1=S`, “inactive”; that for `CC(C)(C)c1ccc(-c2noc(CCC(N)=O)n2)cc1`, < 0.16 µM (inactive).
Take `CCOC(=O)c1c(N)sc(C(O)(C(F)(F)F)C(F)(F)F)c1-c1ccc(Cl)cc1`: the IC50 entry was “inactive”.
For `CC1=C(CO)C(=O)OC([C@@H](C)C2CC[C@H]3C4C[C@H]5O[C@]56[C@@H](O)C=CC(=O)[C@]6(C)C4CC[C@]23C)C1` (stereo partly drawn), the IC50 was > 10 µM (inactive).
As for `O=C1CC(c2ccco2)CC(O)=C1C=Nc1ccccc1-c1ccccc1` (stereo not drawn), the entry is “inactive”.
On to `CCOc1ccc(-c2nc(CSCC(=O)NCc3ccco3)c(C)o2)cc1`, for which the IC50 is under 0.16 µM.
For `CC(C)(C)C1C/C(=C/c2ccco2)C(=O)/C(=C/c2ccco2)C1` (stereo not drawn), the IC50 is > 10 µM (inactive).
For the molecule `N#CC(C#N)=C1C=CC=CN1/C(=C\c1ccccc1Cl)C(=O)c1ccccc1`, the IC50 result is “inactive”.
On to `Cc1nc2ccccn2c1C(=O)N=Nc1c(O)n(CCC(C)C)c2ccccc12`, for which the IC50 was > 10 µM (inactive).
Regarding `Cc1ccc(-n2ncc(Br)c(Br)c2=O)cc1`, the IC50 entry is “inactive”.
As to `CC1(c2ccccc2)CC(C)(C)n2c(O)c(C3=NC(=S)NC3=O)c3cccc1c32` (stereo not drawn), the IC50 is > 10 µM (inactive).
In the case of `Cc1cc(Cl)ccc1OCC(=O)N[C@@H](Cc1ccccc1)c1nc2ccccc2[nH]1`, the IC50 is > 10 µM (inactive).
`O=C(Nc1ccc([N+](=O)[O-])cc1)Nc1ccc(OC(F)F)c(Cl)c1`: the IC50 result is “inactive”.
As to `O=C1C(Nc2ccc(O)cc2)=C/C(=N/S(=O)(=O)c2cccs2)c2ccccc21`, the IC50 was 1.21 µM.
With `O=C(OCn1ncc(Cl)c(Cl)c1=O)c1ccc(C(F)(F)F)cc1`, the IC50 is > 10 µM (inactive).
For `Cn1c(=O)[nH]c(=O)c2c1nc([N+](=O)[O-])n2Cc1ccccc1`, the IC50 entry was “inactive”.
As to `Cc1nn(-c2ccccc2)c(Cl)c1CN(C(=O)CCl)c1ccc(Cl)cc1`, the IC50 was 3.3 µM.
Consider `C=C(C)Cn1c(N2CCC(Cc3ccccc3)CC2)nc2c1c(=O)[nH]c(=O)n2C`, for which the IC50 was > 10 µM (inactive).
On to `COC(=O)/C=C\C(=O)Nc1cccc([N+](=O)[O-])c1`, for which the IC50 was > 10 µM (inactive).
Turning to `CCC(C)NC(=O)c1c(N)n(CC2CCCO2)c2nc3ccccc3nc12` (stereo not drawn), the IC50 was > 10 µM (inactive).
On to `Fc1c(F)c(C(F)(F)F)c(F)c(F)c1N/N=C\c1cccs1`, for which the IC50 is 4.26 µM.
The result for `O=C(Nc1ccc([N+](=O)[O-])cc1)Nc1nc(-c2ccc(Cl)s2)cs1` reads 2.53 µM.
The result for `Fc1cccc(-c2nnn3c2nc(Cl)c2ccccc23)c1` reads “inactive”.
For the molecule `Cc1cccc(C)c1NC(=O)COc1ccccc1C(=O)Nc1ccc(Br)cn1`, the IC50 was > 10 µM (inactive).
As for `Cc1ccc(C(=O)Nc2cnc3ccccc3c2)cc1`, the figure is 4.09 µM; as for `O=C(c1nnsc1S(=O)(=O)c1ccc(Cl)cc1)N1CCOCC1`, “inactive”.
Take `CN1CCc2c(sc(NC(=O)c3cc4cc([N+](=O)[O-])ccc4s3)c2C(N)=O)C1`: the IC50 is > 10 µM (inactive).
As to `O=C(CN1c2ccccc2Sc2ccccc21)NNC(=O)Nc1cccc(Cl)c1`, the IC50 is > 10 µM (inactive).
As for `CCCC(=O)OCCNc1cc(Sc2nc3ccccc3[nH]2)c2nonc2c1[N+](=O)[O-]`, the IC50 result was “inactive”.
In the case of `O=C(Nc1ccccc1)Nc1cc(OCC(F)(F)F)cc(OCC(F)(F)F)c1`, the IC50 was 3.95 µM.
As for `Cc1ccc(-c2cc3c(nn2)-c2ccccc2C3=O)cc1`, the entry is “inactive”.
For the molecule `O=C(OCC(F)(F)F)c1cccc(COc2ccc3ccccc3c2)c1`, the IC50 was 0.98 µM.
As to `CC(C)CCSc1nc2c(c(=O)[nH]c(=O)n2C)n1CCCc1ccccc1`, the IC50 is > 10 µM (inactive).
Take `Cc1ccc(OCC(=O)N2N=C(C(F)(F)F)CC2(O)C(C)(C)C)cc1C` (stereo not drawn): the IC50 result is “inactive”.
As for `Cc1cccc(OCc2n(CC(=O)OC3CC(C)CCC3C(C)C)c3ccccc3[n+]2C)c1` (stereo not drawn), the figure is > 10 µM (inactive); as for `CC(C)C[C@H](NC(=O)OC(C)(C)C)C(=O)N/N=C/C1=Cc2ccccc2OC1C` (stereo partly drawn), “inactive”.

In general, IC50 refers to the midpoint of a concentration-inhibition curve.

(Values after PubChem BioAssay AID504313 (Emory University Molecular Libraries Screening Center, 2011).)
